Assay results taken from paper PMC7277860, “Viridistratins A−C, Antimicrobial and Cytotoxic Benzo[j]fluoranthenes from Stromata of Annulohypoxylon viridistratum (Hypoxylaceae, Ascomycota)” (Biomolecules, 2020).
In brackets after ≈: the same amount, converted by molar mass. One block for each compound: values may come before it.

Tests used:
Assay in all cases: MIC serial dilution assay
Type in all cases: cell-based
[1] = tested on: Mycolicibacterium smegmatis; conditions: Mycolicibacterium smegmatis ATCC700084; overnight, 37 °C; reference kanamycin 0.1 mg/mL
Procedure: (§1) Compounds 1, 2, 4 and 5 were dissolved in MeOH (1 mg/mL) for the antimicrobial activity assay, while compound 3 was dissolved in MeOH: DMSO 9+1 (1 mg/mL). The solvents were also used as negative controls.
(§2) Minimum inhibitory concentrations (MIC) were determined in a serial dilution assay, as described previously; a detailed protocol can be found in the Supporting Information. The compounds (1 mg/mL) were diluted to a range of 66.7 to 0.52 µg/mL and incubated with the test organisms overnight. Inhibition of growth was visually evaluated the next day: the MIC is defined as the lowest concentration of the test compound where no growth of the test organism was observed. Various test organisms of fungal and bacterial origin were tested to cover a broad range of microorganisms. This selection is also being used as a standard test panel in our attempts to discover new anti-infectives, as it represents a broad spectrum of pathogens of clinical interest, as well as sensitive indicator strains (bacteria: Bacillus subtilis, Staphylococcus aureus, Micrococcus luteus, Chromobacterium violaceum, Escherichia coli and Pseudomonas aeruginosa; mycobacteria: Mycolicibacterium smegmatis and fungi: Candida albicans, Schizosaccharomyces pombe, Mucor hiemalis, Pichia anomala and Rhodotorula glutinis).
(§3) Protocol: Antimicrobial Activi ty Assay
(§4) The assay was conducted as a minimum inhi bitory concentration (MIC) assay in 96-well ro und-bottom mi crotiter pl ate s usi ng the p ar ameter s su mm ari zed i n T a bl e S 1 and as already described i n [S1].
(§5) Stocks of the test organi sms were generated by growing the organisms o ver ni ght i n 50 mL shaki ng fl asks fi ll ed wi th 25 mL of the growth medi um at 140 rpm (for media and temperatures see Table S1). If the organisms were well grown the ne xt day, which was checked by occurrence of an optical density (OD)>30 of the suspension (OD600 nm for bacteria, OD548 nm for fungi and M. smegma tis) , aliquots of these were stored i n 1.5 mL reaction tube s in a freezer at −80 °C for up to 12 mo nths . Upon use, aliquots were unth awed and the OD of the suspension measured and adjusted by diluting with the respective growth medi um. OD600 nm w as adj usted to 0.01 and OD548 nm to 0.1.
(§6) Subse que ntly, 150 µL o f the adjusted suspensions were added to all wells of a 96-wel l microtiter pl ate (one test organi sm per plate). In row A, additional 130 µL of suspensions plus 20 µL of the test compounds (1 mg/mL) and the controls (one compound/column) were added. MeOH as well as MeOH:DMSO 9+1 were used as negative controls, while different positive controls (refer ences) were used for the test organisms (see Tabl e S1). Then, starti ng from row A, 150 µ L of the suspension were transferred to the next row, the contents thoroughly mixed, and 150 µ L transferred to the following row.
(§7) The remaining 150 µ L after row H were discarded. […]
(§8) compounds, ranging from 66.7 µg/mL i n row A to 0.52 µg/mL i n row H.
(§9) The microtiter plates were then incubated overnight o n a microplate shaker at 800 rpm at 30 or 37 °C (see Table S1) and were visually evaluated the next day. The MIC is defined as the lowest concentration were no growth of the test organism was o bserved. A lower MIC thus corresponds to a higher antimicrobial activity of the test compound.
(§10) Table S1: MIC assay ex per i men t parameters test organism strain No. growth incubation positive control (reference) […]
(§11) Rhodotorula glutinis DSM10134 MYC 3 30 nyst ati n 1.0 mg/mL
(§12) 1 MHB: Müller-Hinton Broth (SN X927.1, Ca r l Roth GmbH, Karlsruhe, Germany) 2 7H9+ADC: Middlebrook 7H9 Broth Base + Middlebrook ADC Growth Supplement (SN M0678+M0553, Merck, Darmstadt, Germany)
(§13) 3 MYC: 1 % w/v, bacto peptone, 1% w/v yeast extract, 2 % w /v glycerol, pH 6.3 [S1] Helaly, S.E.; Ashrafi, S.; Teponno, R.B.; Bernecker, S.; Dababat, A.A.; Maier, W.; Stadler, M.
(§14) Nematicidal Cyclic Lipodepsipeptides and a Xanthocillin Derivative from a Phaeosphariaceous […]

Candida albicans = Candida albicans DSM1665; overnight, 30 °C; reference nystatin 1 mg/mL
Procedure: as §1, §2, §3, §4, §5, §6, §7, §8, §9, §10
Candida albicans DSM1665 MYC 3 30 nyst ati n 1.0 mg/mL […]
as §11, §12, §13, §14

Pichia anomala = Pichia anomala DSM6766; overnight, 30 °C; reference nystatin 1 mg/mL
Procedure: as §1, §2, §3, §4, §5, §6, §7, §8, §9, §10
Pichia anomala DSM6766 MYC 3 30 nyst ati n 1.0 mg/mL
as §11, §12, §13, §14

Mucor hiemalis = Mucor hiemalis DSM2656; overnight, 30 °C; reference nystatin 1 mg/mL
Procedure: as §1, §2, §3, §4, §5, §6, §7, §8, §9, §10
Mucor hiemalis DSM2656 MYC 3 30 nyst ati n 1.0 mg/mL […]
as §11, §12, §13, §14

Rhodotorula glutinis = Rhodotorula glutinis DSM10134; overnight, 30 °C; reference nystatin 1 mg/mL
Procedure: as §1, §2, §3, §4, §5, §6, §7, §8, §9, §10, §11, §12, §13, §14

[2] = tested on: Schizosaccharomyces pombe; conditions: Schizosaccharomyces pombe DSM70572; overnight, 30 °C; reference nystatin 1 mg/mL
Procedure: as §1, §2, §3, §4, §5, §6, §7, §8, §9, §10
Schizosaccharomyces DSM70572 MYC 3 30 nyst ati n 1.0 mg/mL […]
as §11, §12, §13, §14

Staphylococcus aureus = Staphylococcus aureus DSM346; overnight, 30 °C; reference oxytetracycline 0.1 mg/mL; read-out: Minimum Inhibitory Concentration (MIC)
Procedure: as §1, §2, §3, §4, §5, §6, §7, §8, §9, §10
Staphylococcus aureus DSM346 MHB 1 30 oxytetr acyclin 0.1 mg/mL […]
as §11, §12, §13, §14

[3] = tested on: Chromobacterium violaceum; conditions: Chromobacterium violaceum DSM30191; overnight, 30 °C; reference oxytetracycline 0.1 mg/mL; read-out: Minimum Inhibitory Concentration (MIC)
Procedure: as §1, §2, §3, §4, §5, §6, §7, §8, §9, §10
Chromobacterium DSM30191 MHB 1 30 oxytetr acyclin 0.1 mg/mL […]
as §11, §12, §13, §14

Bacillus subtilis = Bacillus subtilis DSM10; overnight, 30 °C; reference oxytetracycline 1 mg/mL; read-out: Minimum Inhibitory Concentration (MIC)
Procedure: as §1, §2, §3, §4, §5, §6, §7, §8, §9, §10
Bacillus subtilis DSM10 MHB 1 30 oxytetr acyclin 1.0 mg/mL […]
as §11, §12, §13, §14

Micrococcus luteus = conditions: Micrococcus luteus, DSM1790, Micrococcus luteus DSM1790; overnight, 30 °C; reference oxytetracycline 0.1 mg/mL; read-out: Minimum Inhibitory Concentration (MIC)
Procedure: as §1, §2, §3, §4, §5, §6, §7, §8, §9, §10
Micrococcus luteu s DSM1790 MHB 1 30 oxytetr acyclin 0.1 mg/mL […]
as §11, §12, §13, §14

Escherichia coli = Escherichia coli DSM1116; overnight, 37 °C; reference oxytetracycline 0.1 mg/mL; read-out: Minimum Inhibitory Concentration (MIC)
Procedure: as §1, §2, §3, §4, §5, §6, §7, §8, §9, §10
Escherichia coli DSM1116 MHB 1 37 oxytetr acyclin 0.1 mg/mL […]
as §11, §12, §13, §14

SMILES: NC[C@H]1O[C@H](O[C@H]2[C@H](O)[C@@H](O[C@H]3O[C@H](CO)[C@@H](O)[C@H](N)[C@H]3O)[C@H](N)C[C@@H]2N)[C@H](O)[C@@H](O)[C@@H]1O [kanamycin, reference compound]
Minimum Inhibitory Concentration (MIC) [1]: 3.3 ^4 µg/mL

SMILES: C[C@@H]1[C@H](O)[C@@H](C)/C=C/C=C/CC/C=C/C=C/C=C/C=C/C(O[C@H]2O[C@H](C)[C@@H](O)[C@H](N)[C@@H]2O)CC2O[C@](O)(CC(O)C(O)CCC(O)CC(O)CC(O)CC(=O)O[C@H]1C)CC(O)C2C(=O)O (some centres unmarked) [nystatin, reference compound]
Minimum Inhibitory Concentration (MIC) (Candida albicans): 66.7 ^5 µg/mL
Minimum Inhibitory Concentration (MIC) (Pichia anomala): 66.7 ^5 µg/mL
Minimum Inhibitory Concentration (MIC) (Mucor hiemalis): 66.7 ^5 µg/mL
Minimum Inhibitory Concentration (MIC) (Rhodotorula glutinis): 16.7 ^5 µg/mL
Minimum Inhibitory Concentration (MIC) [2]: 33.3 ^5 µg/mL

MIC (Staphylococcus aureus): 0.4 µg/mL (≈ 0.869 µM)
MIC [3]: 0.1 µg/mL (≈ 0.217 µM)
MIC (Bacillus subtilis): 8.3 µg/mL (≈ 18 µM)
MIC (Micrococcus luteus): 0.8 µg/mL (≈ 1.74 µM)
MIC (Escherichia coli): 1.7 µg/mL (≈ 3.69 µM)
SMILES: CN(C)[C@@H]1C(O)=C(C(N)=O)C(=O)[C@@]2(O)C(O)=C3C(=O)c4c(O)cccc4[C@@](C)(O)[C@H]3[C@H](O)[C@@H]12 [oxytetracycline, reference compound]
